US20070037883A1, “Therapeutic compositions” (priority 2003, published 2007)
“Also recorded” adds a separate entry of the source.

Assays:
[1] = target: T1, Nox4-containing NADPH-oxidase in mouse endothelium (Mus musculus, UniProt Q9JHI8); assay: NADPH-driven NADPH-oxidase activity in mouse endothelium; type: cell-based; conditions: suramin ≦100 μM
T1 construct: Nox4-containing NADPH-oxidase in mouse vascular smooth muscle cells (VSMC, a) and endothelium; endogenous in cells; host or cells: mouse endothelium (preparation not described)
T1 sequence (Q9JHI8 1-578): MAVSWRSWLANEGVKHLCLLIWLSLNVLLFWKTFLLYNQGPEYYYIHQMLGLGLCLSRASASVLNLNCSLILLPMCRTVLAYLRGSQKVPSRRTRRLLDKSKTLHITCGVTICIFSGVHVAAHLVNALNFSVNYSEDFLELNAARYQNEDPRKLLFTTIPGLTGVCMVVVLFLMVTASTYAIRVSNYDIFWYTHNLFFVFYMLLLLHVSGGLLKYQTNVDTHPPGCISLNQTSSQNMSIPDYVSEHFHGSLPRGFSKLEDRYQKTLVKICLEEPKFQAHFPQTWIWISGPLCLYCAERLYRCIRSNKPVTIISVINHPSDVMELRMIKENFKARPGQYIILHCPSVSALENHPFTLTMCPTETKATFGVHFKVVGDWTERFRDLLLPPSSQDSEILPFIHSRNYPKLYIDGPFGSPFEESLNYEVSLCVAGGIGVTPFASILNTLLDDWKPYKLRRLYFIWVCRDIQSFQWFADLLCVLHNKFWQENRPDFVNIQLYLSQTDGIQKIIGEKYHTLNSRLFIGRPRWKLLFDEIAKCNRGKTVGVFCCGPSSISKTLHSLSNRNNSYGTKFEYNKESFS
T1 sequence (Q61462 1-192 partner): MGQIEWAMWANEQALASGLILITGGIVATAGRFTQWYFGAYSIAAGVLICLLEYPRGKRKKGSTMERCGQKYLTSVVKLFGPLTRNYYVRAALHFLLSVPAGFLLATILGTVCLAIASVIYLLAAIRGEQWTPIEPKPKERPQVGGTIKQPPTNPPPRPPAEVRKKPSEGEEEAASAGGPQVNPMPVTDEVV

[2] = tested on: atherosclerotic lesion formation in ApoE−/− mice; assay: Atherosclerotic lesion formation in aortas of fat-fed ApoE mutant mice; type: in vivo, mouse; conditions: high-fat diet, weekly s.c. suramin for 4 months, vs saline
Description: ApoE^−/− mice: Whole aortas are isolated and cut open via an incision along the ventral wall [Jiang et al., 2001, supra]. Tissues are rinsed with 60% v/v isopropanol and stained with oil red O (0.5%) for 10 minutes at room temperature. After staining, tissues are rinsed in 60% v/v sopropanol and preserved in 10% v/v neutral buffered formalin. The en face surface of the aorta is then imaged and lesion area (red-stained) quantified using MCID imaging analysis software.
Twelve-week-old ApoE mutant mice were fed a high fat diet for a further 4 months. During this 4 month period, the mice were given weekly subcutaneous injections of saline or suramin. Specifically, mice were initially dosed with two weekly injections of 300 mg/kg suramin. Four weeks later a 25 mg/kg dose of suramin was administered, and then weekly doses of 15 mg/kg suramin were administered for a further 11 weeks. At the end of the treatment period, mice were killed by anaesthetic overdose and the aorta was removed, cleaned of adherent fat on the adventitial surface, and then cut longitudinally along the entire length. […] The en face surface of the aorta was then imaged and lesion area (red-stained) quantified and expressed as a percent of total luminal surface area for each of: total aorta, thoracic aorta, abdominal aorta, and aortic arch. […]

[3] = tested on: cerebral artery NADPH-oxidase activity; assay: NADPH-induced superoxide production by the rat basilar artery in vitro after subarachnoid haemorrhage, chronic in vivo treatment; design: species or system Sprague-Dawley rats; conditions: FIG. 13
Description: Subarachnoid hemorrhage: On Day 0, rats are briefly anaesthetized (pentobarbital 50 mg/kg ip) and an osmotic minipump containing either saline or suramin is implanted subcutaneously. The dose rate of suramin is 300 mg/kg per 7 days. On Day 5, rats are again anaesthetized and 0.3 ml of blood is withdrawn from a femoral artery and injected into the cerebrospinal fluid around the ventral surface of the brain via the cisterna magna. In some control rats, saline is injected into the cerebrospinal fluid instead of arterial blood. The rat is allowed to recover for a further 2 days, and is then again anaesthetized on Day 7 for study.
On Day 0, rats were briefly anaesthetized and an osmotic minipump containing either saline or suramin was implanted subcutaneously. The dose rate of suramin was 30 or 300 mg/kg per 7 days. On Day 5, rats were again anaesthetized and 0.3 ml of blood was withdrawn from a femoral artery and injected into the cerebrospinal fluid around the ventral surface of the brain via the cisterna magna. In some rats, saline was injected into the cerebrospinal fluid instead of arterial blood. […]
The brain was removed and the basilar artery was isolated and then incubated with 5 micromolar lucigenin, 100 micromolar NADPH and 3 millimolar diethyldithiocarbamate. Superoxide production was measured using lucigenin-enhanced chemiluminescence.

[4] = tested on: angiotensin II-induced hypertension; assay: Angiotensin II-induced hypertension, arterial blood pressure; type: in vivo, rats
Description: Measurement of arterial blood pressure: Rats are briefly anaesthetized (ketamine 80 mg/kg ip plus xylazine 10 mg/kg ip) and a saline-filled cannula is inserted in a femoral artery. The cannula is connected to a pressure transducer and a chart recorder. When arterial pressure is observed to be stable (within 5 minutes) mean arterial pressure is calculated and recorded.
Angiotensin II-induced experimental hypertension: On Day 0, rats are briefly anaesthetized (ketamine 80 mg/kg ip plus xylazine 10 mg/kg ip) and an osmotic minipump containing either saline or suramin is implanted subcutaneously. The dose rate of suramin is 300 mg/kg per 14 days. On Day 7, rats are again anaesthetized and another minipump containing saline or angiotensin II is implanted subcutaneously. The dose rate of angiotensin II is 5 mg/kg per 7 days. On Day 14, each rat is again anaesthetized and a cannula was inserted into a femoral artery for measurement of blood pressure. Angiotensin II causes a large increase in mean arterial pressure (of approx. 60-80 mmHg) in control rats.
On Day 0, rats were briefly anaesthetized and an osmotic minipump containing either saline or suramin was implanted subcutaneously. The dose rate of suramin was 300 mg/kg per 14 days. On Day 7, rats were again anaesthetized and another minipump containing saline or angiotensin II was implanted subcutaneously. The dose rate of angiotensin II was 5 mg/kg per 7 days. On Day 14, each rat was again anaesthetized and a cannula was inserted into a femoral artery for measurement of blood pressure. Angiotensin II caused a large increase in blood pressure in rats pretreated with saline. In contrast, the increase in blood pressure by angiotensin II was prevented by approximately 60% in rats pretreated with suramin.

Cc1ccc(C(=O)Nc2ccc(S(=O)(=O)O)c3cc(S(=O)(=O)O)cc(S(=O)(=O)O)c23)cc1NC(=O)c1cccc(NC(=O)Nc2cccc(C(=O)Nc3cc(C(=O)Nc4ccc(S(=O)(=O)O)c5cc(S(=O)(=O)O)cc(S(=O)(=O)O)c45)ccc3C)c2)c1 [suramin]
inhibition of 100 μM NADPH-driven activity of Nox4-containing NADPH-oxidase in endothelium [1]: fully inhibits | atherosclerotic lesion area: total aorta, thoracic aorta, abdominal aorta ([2]; FIG. 12): markedly smaller lesion areas; also recorded: smaller lesion area | lesion size in the aortic arch ([2]; FIG. 12b): no effect | NADPH (100 μM)-driven superoxide production by isolated basilar artery, control rats ([3]; suramin 30-300 mg/kg over 7 days, control rats without SAH): no effect | NADPH-driven superoxide production by basilar artery 2 days after SAH ([3]; suramin 30 or 300 mg/kg per 7 days s.c. minipump, rats subjected to SAH): not different from levels measured in non-operated control rats; also recorded: prevents the increase | mean arterial blood pressure of control rats ([4]; suramin 150 mg/kg s.c. per week for 2 weeks, no angiotensin II, ketamine-xylazine anaesthesia, FIG. 15): no effect | prevention of the increase in blood pressure by angiotensin II ([4]; suramin 300 mg/kg per 14 days, angiotensin II 5 mg/kg per 7 days, Day 14): approximately 60% | increase in arterial pressure during angiotensin II administration (in words) ([4]; suramin 1 week prior to and during 1 week of angiotensin II 5 mg/kg s.c., FIG. 15): smaller increase
